Laboratory results from US11840515B2, “Methods for preparing N-(4-fluorobenzyl)-N-(1-methylpiperidin-4-yl)-N′-(4-(2-methylpropyloxy)phenylmethyl)carbamide and its tartrate salt and polymorphic form c” (ACADIA Pharmaceuticals Inc., priority 2015, dated 2023).
Structures can show the parent of a compound that is named as a salt.

Assays:
[1] = bioavailability; assay type: in vivo; conditions: free base is deliberated at physiological pH ranges
[2] = solubility in water / aqueous systems; assay type: physicochemical
[3] = storage stability; assay type: physicochemical
[4] = thermal stability of polymorphic form; assay type: physicochemical

CC(C)COc1ccc(CNC(=O)N(Cc2ccc(F)cc2)C2CCN(C)CC2)cc1 [Pimavanserin tartrate]
bioavailability [1]: high bioavailability
solubility in aqueous systems ([2]; aqueous systems): very good
storage stability [3]: high storage stability

CC(C)COc1ccc(CNC(=O)N(Cc2ccc(F)cc2)C2CCN(C)CC2)cc1 [Polymorphic Form C]
thermostability of the polymorphic form [4]: thermostabile

CC(C)COc1ccc(CNC(=O)N(Cc2ccc(F)cc2)C2CCN(C)CC2)cc1 [pimavanserin, N-(4-fluorophenylmethyl)-N-(1-methylpiperidin-4-yl)-N′-(4-(2-methylpropyloxy)phenylmethyl)carbamide]
solubility in water ([2]; water): low
